Source: publication PMC5046141, “Discovery of Isoquinolinoquinazolinones as a Novel Class of Potent PPARγ Antagonists with Anti-adipogenic Effects” (Scientific Reports, 2016)

Biological target: T1, C285G mutant PPARγ2 (Mus musculus, UniProt P37238, C313G)
T1 construct: expressed in transfected cells; host or cells: 3T3-L1, pCS4 CMV vector
T1 sequence (P37238 1-505 C313G): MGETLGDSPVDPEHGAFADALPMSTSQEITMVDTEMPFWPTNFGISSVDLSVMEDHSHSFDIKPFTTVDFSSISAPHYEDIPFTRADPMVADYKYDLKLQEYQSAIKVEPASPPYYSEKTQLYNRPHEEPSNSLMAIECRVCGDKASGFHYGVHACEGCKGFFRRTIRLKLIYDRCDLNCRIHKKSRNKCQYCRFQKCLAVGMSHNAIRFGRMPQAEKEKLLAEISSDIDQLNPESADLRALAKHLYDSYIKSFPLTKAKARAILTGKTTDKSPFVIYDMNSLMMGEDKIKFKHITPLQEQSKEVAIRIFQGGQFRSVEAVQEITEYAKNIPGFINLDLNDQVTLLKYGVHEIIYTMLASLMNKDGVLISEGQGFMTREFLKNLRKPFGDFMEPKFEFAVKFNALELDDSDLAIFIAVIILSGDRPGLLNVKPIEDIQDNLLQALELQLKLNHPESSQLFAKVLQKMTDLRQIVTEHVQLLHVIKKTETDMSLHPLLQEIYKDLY
T1 sequence (P28700 1-467 partner): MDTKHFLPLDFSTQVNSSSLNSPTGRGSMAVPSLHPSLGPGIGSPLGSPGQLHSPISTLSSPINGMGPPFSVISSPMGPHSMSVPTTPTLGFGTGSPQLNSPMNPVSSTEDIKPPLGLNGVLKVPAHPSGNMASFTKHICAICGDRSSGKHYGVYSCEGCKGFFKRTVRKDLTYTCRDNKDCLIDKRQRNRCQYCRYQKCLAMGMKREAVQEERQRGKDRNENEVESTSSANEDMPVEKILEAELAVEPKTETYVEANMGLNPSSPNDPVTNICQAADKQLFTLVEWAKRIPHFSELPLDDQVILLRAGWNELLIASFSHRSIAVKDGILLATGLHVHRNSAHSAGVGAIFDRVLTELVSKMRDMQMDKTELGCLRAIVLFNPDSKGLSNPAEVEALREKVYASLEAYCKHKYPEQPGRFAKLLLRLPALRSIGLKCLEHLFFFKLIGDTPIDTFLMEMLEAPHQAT
Test: PPRE-Luc reporter assay with C285G mutant PPARγ2 in 3T3-L1 cells
Assay type: cell-based
Settings: 5 μM, 12 h
Protocol: To investigate the contribution site on the PPARγ2 to the interaction with 8o, we generated mutant forms of the PPARγ2 (Fig. 5). […] Thus, we tested Cys-to-Gly (Cys285), Arg-to-Gly (Arg288) substitution mutants of PPARγ2. […] The results indicated 8o has interaction with both Cys285 and Arg288, which are in agreement with the docking study.
Figure 5 Mutational study. Residues Cys285 and Arg288 of PPARγ are important for 8o function. The transcriptional activity was determined in 3T3-L1 cells transiently co-transfected with PPRE-driven luciferase reporter gene (PPRE-Luc) and PPARγ2 (WT) or (C285G, R288G) expression vector. After 24 h of transfection, the cells were cultured with 5 μM GW9662 and 5 μM 8o respectively for 12 h. Luciferase activity was measured after 36 h. Error bars mean ± SD of at least three experiments. ^*P < 0.05, ^**P < 0.01.
For plasmids expressing PPARγ2, full length PPARγ2 (mouse, 1518 bp: NCBI Reference Sequence: NP_035276.2) was subcloned into CMV promoter-derived mammalian expression vector (pCS4). […]
3T3-L1 cells were transfected for indicated combinations of expression plasmids along with a luciferase reporter plasmid (PPRE-Luc). […] Luciferase activities were measured using a luciferase reporter assay kit (Promega, Madison, WI, USA). […]

Row | effect of Cys285 to Gly substitution on the compound's inhibition of PPARγ2 activity | SMILES
1 | abolished the inhibitory effect | O=C(Nc1ccccc1)c1cc([N+](=O)[O-])ccc1Cl [GW9662, reference compound]
2 | abolished the inhibitory effect | COc1cc2cc3n(c(=O)c2cc1OC)CNc1cc(Cl)ccc1-3 [Compound 8o, 3-Chloro-10,11-dimethoxy-5H-isoquinolino[2,3-c]quinazolin-8(6H)-one]
